From paper PMC6015718, “Effect of Polyvalence on the Antibacterial Activity of a Synthetic Peptide Derived from Bovine Lactoferricin against Healthcare-Associated Infectious Pathogens” (BioMed Research International, 2018)
Where two headings read alike, the source gives them in different places. One block for each compound: values may come before it. Positions of bridges follow the written chain, without caps; N, C: chain ends. Non-standard residues stand in square brackets, D forms with d. Residues, ends and D or L forms follow the SMILES beside them. Chains are numbered I, II in the order given. No end group written: not given here. Ahx = NCCCCCC(=O)O

Experiments:
Type in all cases: cell-based
[1] = tested on: Staphylococcus aureus ATCC 25923 (sensitive)
Source text: (§1) All microorganisms were purchased from the American Type Culture Collection (ATCC). To determine the antibacterial activity of synthetic peptides against HCAI bacteria, the Staphylococcus aureus strains ATCC 25923 and ATCC 33591 were employed as sensitive and resistant strains, respectively, of a Gram-positive microorganisms species, and Klebsiella pneumoniae ATCC 13883 and ATCC 700603 as sensitive and resistant strains of a Gram-negative species.
(§2) The antibacterial activity assay for peptides and controls was performed according to the National Committee for Clinical Laboratory Standards method M7-A7 [11]. MIC and MBC values were determined using a broth microdilution and growth inhibition method with some modification. Briefly, MIC assays were performed by liquid inhibition growth assay in an untreated sterile 96-well flat-bottom tissue culture plate. Bacteria were cultured overnight on Mueller-Hinton agar (MHA). Three colonies were transferred to 8 mL of Mueller-Hinton broth (MHB) and incubated at 37°C until the mid-exponential phase of growth. The turbidity of the cultures was measured and adjusted spectrophotometrically to McFarland standard 0.5, then diluted to a final concentration of […]. Synthetic antibacterial peptide candidate stock solutions were diluted to final concentrations per well of 200, 100, 50, 25, 12.5, and 6.25 μM. […]
(§3) Wells containing MHB with bacterial inoculum only served as bacterial growth controls. Additional controls included MHB alone and MHB with ciprofloxacin (CIP) (2 μg/mL) and bacteria as a positive control. The microplate was incubated for 24 h at 37°C, and growth inhibition was examined by monitoring the optical density at 620 nm (OD620). MIC was defined as the lowest peptide concentration that inhibited bacteria growth >90%.

[2] = tested on: Klebsiella pneumoniae ATCC 700603 (resistant)
Source text: as §1
(§4) To determine the MBC, an aliquot from each well of the MIC assay was spread onto MHA. After 18 h at 37°C, the concentration that inhibited bacterial growth was determined. Each of these tests was performed four times. MBC was defined as the lowest concentration of peptide that reduced the number of bacteria by 99.9% in vitro [12].

[3] = tested on: Staphylococcus aureus ATCC 25923 (sensitive); remark: listed apart in the source
Source text: as §1, §4

[4] = tested on: Staphylococcus aureus ATCC 33591 (resistant)
Source text: as §1, §4

[5] = tested on: Klebsiella pneumoniae ATCC 13883 (sensitive)
Source text: as §1, §4

[6] = tested on: Klebsiella pneumoniae ATCC 700603 (resistant); remark: listed apart in the source
Source text: as §1, §2, §3

[7] = tested on: Staphylococcus aureus ATCC 33591 (resistant); remark: listed apart in the source
Source text: as §1, §2, §3

[8] = tested on: Klebsiella pneumoniae ATCC 13883 (sensitive); remark: listed apart in the source
Source text: as §1, §2, §3

human erythrocytes = experiment: Haemolytic activity; conditions: 6.25-100 μM peptide; human erythrocytes 2% haematocrit in PBS, 2 h 37°C, OD492; n = 2
Method: Human erythrocytes collected from the blood samples of healthy humans were harvested by centrifugation for 7 min at 162 ×g and washed three times in phosphate-buffered saline (PBS). The erythrocytes (2% haematocrit in PBS) were incubated with peptide molecules at several concentrations (6.25, 12.5, 25, 50, and 100 μM), for 2 h at 37°C. PBS was used as a negative control, and sterile distilled water was used as a positive control for haemolysis (100% of haemolysis). The plate was subsequently centrifuged at 1459 ×g for 10 min at 4°C. Aliquots of the supernatants of each well (75 μL) were carefully transferred to a new sterile 96-well plate, and haemolytic activity was evaluated by measuring the OD492 using an Asys Expert Plus Microplate reader. The experiments were performed in duplicate, and peptide haemolysis activity was calculated.
Lastly, to evaluate the effects of the peptides on normal human erythrocytes, their haemolysis activity was investigated (Figure 6). The percentage of haemolytic activity on human red blood cells after 2 hours was determined via the standard microtitre dilution method. The peptide concentration is reported as μM.

MIC ([1]; ATCC 25923, 24 h): > 200 µM
Compound: CSCC[C@H](NC(=O)[C@H](CCCNC(=N)N)NC(=O)[C@H](Cc1c[nH]c2ccccc12)NC(=O)[C@H](CCC(N)=O)NC(=O)[C@H](Cc1c[nH]c2ccccc12)NC(=O)[C@H](CCCNC(=N)N)NC(=O)[C@H](CCCNC(=N)N)NC(=O)[C@H](CS)NC(=O)[C@H](CCCCN)NC(=O)[C@@H](N)Cc1ccccc1)C(=O)N[C@@H](CCCCN)C(=O)N[C@@H](CCCCN)C(=O)N[C@@H](CC(C)C)C(=O)NCC(=O)N[C@@H](C)C(N)=O [LfcinB reference, reference compound]
MBC ([2]; ATCC 700603, 18 h): > 200 µM
MBC ([3]; ATCC 25923, 18 h): > 200 µM
MBC ([4]; ATCC 33591, 18 h): 100 µM
MBC ([5]; ATCC 13883, 18 h): > 200 µM

MIC ([6]; ATCC 700603, 24 h): 12.5 µM
MIC ([6]; K. pneumoniae ATCC 700603 resistant, MHB, 24 h 37°C, OD620, >90% inhibition, average of four independent experiments in duplicate): 57 µg/mL
MIC ([6]; K. pneumoniae ATCC 700603 resistant, MHB, 24 h 37°C, OD620, >90% inhibition, average of four independent experiments in duplicate, listed as tetrameric): ≥ 57 µg/mL
MIC ([6]; K. pneumoniae ATCC 700603 resistant, value in parentheses, MHB, 24 h 37°C, OD620, >90% inhibition): ≥ 12,5 µM
MIC ([1]; ATCC 25923, 24 h): 6.25 µM
MIC ([1]; S. aureus ATCC 25923 sensitive, MHB, 24 h 37°C, OD620, lowest concentration inhibiting growth >90%, average of four independent experiments in duplicate): 29 µg/mL
MIC ([1]; S. aureus ATCC 25923 sensitive, MHB, 24 h 37°C, OD620, lowest concentration inhibiting growth >90%, average of four independent experiments in duplicate, listed as tetrameric): ≥ 29 µg/mL
MIC ([1]; S. aureus ATCC 25923 sensitive, value in parentheses, MHB, 24 h 37°C, OD620, >90% inhibition, average of four independent experiments in duplicate): ≥ 6.25 µM
MIC ([7]; ATCC 33591, 24 h): 12.5 µM
MIC ([7]; S. aureus ATCC 33591 resistant, MHB, 24 h 37°C, OD620, >90% inhibition, average of four independent experiments in duplicate): 57 µg/mL
MIC ([7]; S. aureus ATCC 33591 resistant, MHB, 24 h 37°C, OD620, >90% inhibition, average of four independent experiments in duplicate, listed as tetrameric): ≥ 57 µg/mL
MIC ([7]; S. aureus ATCC 33591 resistant, value in parentheses, MHB, 24 h 37°C, OD620, >90% inhibition): ≥ 12.5 µM
MIC ([8]; ATCC 13883, 24 h): 6.25 µM
MIC ([8]; K. pneumoniae ATCC 13883 sensitive, MHB, 24 h 37°C, OD620, >90% inhibition, average of four independent experiments in duplicate): 29 µg/mL
MIC ([8]; K. pneumoniae ATCC 13883 sensitive, MHB, 24 h 37°C, OD620, >90% inhibition, average of four independent experiments in duplicate, listed as tetrameric): ≥ 29 µg/mL
MIC ([8]; K. pneumoniae ATCC 13883 sensitive, value in parentheses, MHB, 24 h 37°C, OD620, >90% inhibition): ≥ 6,25 µM
Compound: N=C(N)NCCC[C@H](NC(=O)[C@H](Cc1c[nH]c2ccccc12)NC(=O)[C@H](CCC(N)=O)NC(=O)[C@H](Cc1c[nH]c2ccccc12)NC(=O)[C@H](CCCNC(=N)N)NC(=O)[C@@H](N)CCCNC(=N)N)C(=O)NCCCC[C@H](NC(=O)[C@H](CCCNC(=N)N)NC(=O)[C@H](Cc1c[nH]c2ccccc12)NC(=O)[C@H](CCC(N)=O)NC(=O)[C@H](Cc1c[nH]c2ccccc12)NC(=O)[C@H](CCCNC(=N)N)NC(=O)[C@@H](N)CCCNC(=N)N)C(=O)NCCCCCC(=O)N[C@@H](CSSC[C@H](NC(=O)CCCCCNC(=O)[C@H](CCCCNC(=O)[C@H](CCCNC(=N)N)NC(=O)[C@H](Cc1c[nH]c2ccccc12)NC(=O)[C@H](CCC(N)=O)NC(=O)[C@H](Cc1c[nH]c2ccccc12)NC(=O)[C@H](CCCNC(=N)N)NC(=O)[C@@H](N)CCCNC(=N)N)NC(=O)[C@H](CCCNC(=N)N)NC(=O)[C@H](Cc1c[nH]c2ccccc12)NC(=O)[C@H](CCC(N)=O)NC(=O)[C@H](Cc1c[nH]c2ccccc12)NC(=O)[C@H](CCCNC(=N)N)NC(=O)[C@@H](N)CCCNC(=N)N)C(N)=O)C(N)=O [Tetrameric] (I: H-RRWQWRK[Ahx]C-NH2 / II: H-RRWQWRK[Ahx]C-NH2 / III: H-RRWQWR / IV: H-RRWQWR; amide I:7-III:C, II:7-IV:C; disulfide I:9-II:9)
concentration at which antibacterial activity was displayed (dose-response profile) ([1]; S. aureus sensitive strain, Figure 2): ≥ 29 µg/mL
MBC ([2]; ATCC 700603, 18 h): 25 µM
MBC ([2]; K. pneumoniae ATCC 700603 resistant, MHA, 18 h 37°C, 99.9% reduction): 115 µg/mL
MBC ([2]; K. pneumoniae ATCC 700603 resistant, MHA, 18 h 37°C, 99.9% reduction, listed as tetrameric): ≥ 115 µg/mL
MBC ([2]; K. pneumoniae ATCC 700603 resistant, value in parentheses, MHA, 18 h 37°C, 99.9% reduction): ≥ 25 µM
MBC as a function of the MBC of the tetrameric peptide ([2]; K. pneumoniae resistant strain, from concentrations in μg/mL): 1 x MBC
MBC ([3]; ATCC 25923, 18 h): 12.5 µM
MBC ([3]; S. aureus ATCC 25923 sensitive, MHA, 18 h 37°C, 99.9% reduction, average of four independent experiments): 57 µg/mL
MBC ([3]; S. aureus ATCC 25923 sensitive, MHA, 18 h 37°C, 99.9% reduction, average of four independent experiments, listed as tetrameric): ≥ 57 µg/mL
MBC ([3]; S. aureus ATCC 25923 sensitive, value in parentheses, MHA, 18 h 37°C, 99.9% reduction): ≥ 12.5 µM
MBC as a function of the MBC of the tetrameric peptide ([3]; S. aureus sensitive strain, from concentrations in μg/mL): 1 x MBC
MBC ([4]; ATCC 33591, 18 h): 12.5 µM
MBC ([4]; S. aureus ATCC 33591 resistant, MHA, 18 h 37°C, 99.9% reduction): 57 µg/mL
MBC ([4]; S. aureus ATCC 33591 resistant, MHA, 18 h 37°C, 99.9% reduction, listed as tetrameric): ≥ 57 µg/mL
MBC ([4]; S. aureus ATCC 33591 resistant, value in parentheses, MHA, 18 h 37°C, 99.9% reduction): ≥ 12.5 µM
MBC as a function of the MBC of the tetrameric peptide ([4]; S. aureus resistant strain, from concentrations in μg/mL): 1 x MBC
MBC ([5]; ATCC 13883, 18 h): 25 µM
MBC ([5]; K. pneumoniae ATCC 13883 sensitive, MHA, 18 h 37°C, 99.9% reduction): 115 µg/mL
MBC ([5]; K. pneumoniae ATCC 13883 sensitive, MHA, 18 h 37°C, 99.9% reduction, listed as tetrameric): ≥ 115 µg/mL
MBC ([5]; K. pneumoniae ATCC 13883 sensitive, value in parentheses, MHA, 18 h 37°C, 99.9% reduction): ≥ 25 µM
MBC as a function of the MBC of the tetrameric peptide ([5]; K. pneumoniae sensitive strain, from concentrations in μg/mL): 1 x MBC

MIC ([6]; ATCC 700603, 24 h): 50 µM
MIC ([1]; ATCC 25923, 24 h): 50 µM
MIC ([7]; ATCC 33591, 24 h): 6.25 µM
MIC ([8]; ATCC 13883, 24 h): 50 µM
Compound: RWQWRWQWR [Palindromic]
MBC ([2]; ATCC 700603, 18 h): 100 µM
MBC ([3]; ATCC 25923, 18 h): 100 µM
MBC ([4]; ATCC 33591, 18 h): 50 µM
MBC ([5]; ATCC 13883, 18 h): 100 µM

Compound: RRWQWR-NH2 [Motif]
haemolysis activity over the concentrations tested (human erythrocytes): no haemolysis activity
MBC ([2]; ATCC 700603, 18 h): > 200 µM
MBC ([3]; ATCC 25923, 18 h): > 200 µM
MBC ([5]; ATCC 13883, 18 h): > 200 µM
